In patent publication US7214675B2, “Urea substituted imidazoquinoline ethers” (3M Innovative Properties Company, priority 2000, dated 2007):

Legend:
[1] = system: interferon (α) induction in human peripheral blood mononuclear cells (PBMC); assay: Cytokine induction in human cells: interferon (α) secreted by PBMC, ELISA; type: cell-based; design: key to Lowest Effective Concentration (μM) Interferon: A “*” indicates that no induction was seen at any of the tested concentrations; generally the highest concentration tested was 10 or 30 μM; settings: lowest concentration found to induce interferon, incubated 18 to 24 hours at 37° C.
Description: (§1) An in vitro human blood cell system is used to assess cytokine induction. Activity is based on the measurement of interferon and tumor necrosis factor (α) (IFN and TNF, respectively) secreted into culture media as described by Testerman et. al. In “Cytokine Induction by the Immunomodulators Imiquimod and S-27609”, Journal of Leukocyte Biology, 58, 365–372 (September, 1995).
(§2) Whole blood from healthy human donors is collected by venipuncture into EDTA vacutainer tubes. Peripheral blood mononuclear cells (PBMC) are separated from whole blood by density gradient centrifugation using Histopaque®-1077. Blood is diluted 1:1 with Dulbecco's Phosphate Buffered Saline (DPBS) or Hank's Balanced Salts Solution (HBSS). The PBMC layer is collected and washed twice with DPBS or HBSS and resuspended at 4×10^6 cells/mL in RPMI complete. The PBMC suspension is added to 48 well flat bottom sterile tissue culture plates (Costar, Cambridge, Mass. or Becton Dickinson Labware, Lincoln Park, N.J.) containing an equal volume of RPMI complete media containing test compound.
(§3) The compounds are solubilized in dimethyl sulfoxide (DMSO). The DMSO concentration should not exceed a final concentration of 1% for addition to the culture wells. The compounds are generally tested at concentrations ranging from 30–0.014 μM.
(§4) The solution of test compound is added at 60 μM to the first well containing RPMI complete and serial 3 fold dilutions are made in the wells. The PBMC suspension is then added to the wells in an equal volume, bringing the test compound concentrations to the desired range (30–0.014 μM). The final concentration of PBMC suspension is 2×10^6 cells/mL. The plates are covered with sterile plastic lids, mixed gently and then incubated for 18 to 24 hours at 37° C. in a 5% carbon dioxide atmosphere.
(§5) Following incubation the plates are centrifuged for 10 minutes at 1000 rpm (˜200×g) at 4° C. The cell-free culture supernatant is removed with a sterile polypropylene pipet and transferred to sterile polypropylene tubes. Samples are maintained at −30 to −70° C. until analysis. The samples are analyzed for interferon (α) by ELISA and for tumor necrosis factor (α) by ELISA or IGEN Assay
Interferon (α) concentration is determined by ELISA using a Human Multi-Species kit from PBL Biomedical Laboratories, New Brunswick, N.J. Results are expressed in pg/mL.
(§6) The table below lists the lowest concentration found to induce interferon and the lowest concentration found to induce tumor necrosis factor for each compound.

[2] = system: tumor necrosis factor (α) induction in human peripheral blood mononuclear cells (PBMC); assay: Cytokine induction in human cells: tumor necrosis factor (α) secreted by PBMC, ELISA or IGEN assay; type: cell-based; design: key to Lowest Effective Concentration (μM) Tumor Necrosis Factor: A “*” indicates that no induction was seen at any of the tested concentrations; generally the highest concentration tested was 10 or 30 μM; settings: lowest concentration found to induce tumor necrosis factor, incubated 18 to 24 hours at 37° C.
Description: as §1, §2, §3, §4, §5
Tumor necrosis factor (α) (TNF) concentration is determined using ELISA kits available from Biosource International, Camarillo, Calif. Alternately, the TNF concentration can be determined by Origen® M-Series Immunoassay and read on an IGEN M-8 analyzer from IGEN International, Gaithersburg, Md. The immunoassay uses a human TNF capture and detection antibody pair from Biosource International, Camarillo, Calif. Results are expressed in pg/mL.
as §6

Compound | minimal effective concentration [1] [µM] | minimal effective concentration [2] [µM] | melting point [°C] | Lowest Effective Concentration (μM) Interferon [1] | Lowest Effective Concentration (μM) Tumor Necrosis Factor [2]
CCCCc1nc2c(N)nc3ccccc3c2n1CCOCCNC(=O)N[C@H]1C[C@@H]1c1ccccc1 [Example 15] | 0.0001 | 0.1 |  |  | 
CCC(COCCC1CCN(C(=O)N2CCOCC2)CC1)n1cnc2c(N)nc3ccccc3c21 (stereo not shown) [Example 25] | 0.1 | 1 |  |  | 
CCC(COCCC1CCN(C(=O)Nc2cccc(C(C)=O)c2)CC1)n1cnc2c(N)nc3ccccc3c21 (stereo not shown) [Example 30] | 1 | 1 |  |  | 
CCC(COCCC1CCN(C(=O)Nc2cccc(OC)c2)CC1)n1cnc2c(N)nc3ccccc3c21 (stereo not shown) [Example 28] | 0.1 | 1 |  |  | 
CCC(COCCC1CCN(C(=O)NC2CCCCC2)CC1)n1cnc2c(N)nc3ccccc3c21 (stereo not shown) [Example 26] | 0.1 | 1 |  |  | 
COc1ccc(NC(=O)NCCOCCn2cnc3c(N)nc4ccccc4c32)c(OC)c1 [Example 43] | 10 | 10 |  |  | 
CCCCc1nc2c(N)nc3ccccc3c2n1CCOCCNC(=O)Nc1ccc(N(C)C)cc1 [Example 16] | 0.0001 | 10 |  |  | 
CCCCc1nc2c(N)nc3ccccc3c2n1CCOCCNC(=O)Nc1cccc(OC)c1 [Example 14] | 0.0001 | 10 |  |  | 
CCCCc1nc2c(N)nc3ccccc3c2n1CCOCCNC(=O)NC1CCCCC1 [Example 12] | 0.0001 | 1 |  |  | 
CCC(COCCC1CCN(C(=O)N[C@@H]2C[C@H]2c2ccccc2)CC1)n1cnc2c(N)nc3ccccc3c21 (stereo partly shown) [Example 29] | 0.1 | 1 |  |  | 
CCC(COCCC1CCN(C(=O)Nc2cccc(C#N)c2)CC1)n1cnc2c(N)nc3ccccc3c21 (stereo not shown) [Example 27] | 0.1 | 1 |  |  | 
Nc1nc2ccccc2c2c1ncn2CCOCCNC(=O)Nc1ccccc1 [Example 38] | 10 | 10 |  |  | 
CCOCc1nc2c(N)nc3ccccc3c2n1CCOCCNC(=O)N1CCOCC1 [Example 55, N-(2-{2-[4-amino-2-(ethoxymethyl)-1H-imidazo[4,5-c]quinolin-1-yl]ethoxy}ethyl)morpholine-4-carboxamide] |  |  | 178 to 181 |  | 
CCOCc1nc2c(N)nc3ccccc3c2n1CCOCCNC(=O)Nc1ccccc1 [Example 53, N-(2-{2-[4-amino-2-(ethoxymethyl)-1H-imidazo[4,5-c]quinolin-1-yl]ethoxy}ethyl)-N′-phenylurea] |  |  | 183 to 186 |  | 
Cc1nc2c(N)nc3ccccc3c2n1CCOCCNC(=O)Nc1ccccc1 [Example 48, N-{2-[2-(4-amino-2-methyl-1H-imidazo[4,5-c]quinolin-1-yl)ethoxy]ethyl}-N′-phenylurea] |  |  | 193 to 195 |  | 
N#Cc1cccc(NC(=O)NCCOCCn2cnc3c(N)nc4ccccc4c32)c1 [Example 40] | 10 | 10 |  |  | 
CC(C)(C)NC(=O)NCCOCCn1cnc2c(N)nc3ccccc3c21 [Example 37] | 10 | 10 |  |  | 
CCCCc1nc2c(N)nc3ccccc3c2n1CCOCCNC(=O)NC(C)C [Example 7] | 0.0001 | 10 |  |  | 
CCCCc1nc2c(N)nc3ccccc3c2n1CCOCCNC(=O)Nc1cccc(C#N)c1 [Example 13] | 0.0001 | 1 |  |  | 
CCC(COCCC1CCN(C(=S)NC(=O)c2ccco2)CC1)n1cnc2c(N)nc3ccccc3c21 (stereo not shown) [Example 35] | 1 | 1 |  |  | 
CCCCNC(=O)N1CCC(CCOCC(CC)n2cnc3c(N)nc4ccccc4c32)CC1 (stereo not shown) [Example 23] | 1 | 1 |  |  | 

Compound | minimal effective concentration [1] [µM] | minimal effective concentration [2] [µM] | melting point [°C] | Lowest Effective Concentration (μM) Interferon [1] | Lowest Effective Concentration (μM) Tumor Necrosis Factor [2]
CCCCc1nc2c(N)nc3ccccc3c2n1CCOCCNC(=O)Nc1ccccc1 [Example 10] | 0.0001 | 10 |  |  | 
CCC(COCCC1CCN(C(=O)NC(C)C)CC1)n1cnc2c(N)nc3ccccc3c21 (stereo not shown) [Example 22] | 0.1 | 1 |  |  | 
CCCCNC(=O)NCCOCCn1c(CCCC)nc2c(N)nc3ccccc3c21 [Example 9] | 0.0001 | 1 |  |  | 
COc1cccc(NC(=O)NCCOCCn2cnc3c(N)nc4ccccc4c32)c1 [Example 41] | 10 | 10 |  |  | 
CCCCc1nc2c(N)nc3ccccc3c2n1CCOCCNC(=O)NS(=O)(=O)c1ccc(Cl)cc1 [Example 21] | 1 | 10 |  |  | 
CCC(COCCC1CCN(C(=O)Nc2ccccc2)CC1)n1cnc2c(N)nc3ccccc3c21 (stereo not shown) [Example 24] | 0.1 | 1 |  |  | 
Nc1nc2ccccc2c2c1ncn2CCOCCNC(=O)NS(=O)(=O)c1ccccc1 [Example 44] |  |  |  | * | *
CCC(COCCC1CCN(C(=O)Nc2cccc(SC)c2)CC1)n1cnc2c(N)nc3ccccc3c21 (stereo not shown) [Example 31] | 1 | 10 |  |  | 
CCCCc1nc2c(N)nc3ccccc3c2n1CCOCCNC(=O)NC(C)(C)C [Example 8] | 0.0001 | 10 |  |  | 
Nc1nc2ccccc2c2c1ncn2CCOCCNC(=O)N[C@@H]1C[C@H]1c1ccccc1 [Example 42] | 10 |  |  |  | *
CCC(COCCC1CCN(C(=O)NS(=O)(=O)c2ccc(Cl)cc2)CC1)n1cnc2c(N)nc3ccccc3c21 (stereo not shown) [Example 34] | 1 | 10 |  |  | 
CCCCc1nc2c(N)nc3ccccc3c2n1CCOCCNC(=O)NS(=O)(=O)c1ccc(C)cc1 [Example 20] | 0.01 | 10 |  |  | 
CCC(COCCC1CCN(C(=O)NS(=O)(=O)c2ccc(C)cc2)CC1)n1cnc2c(N)nc3ccccc3c21 (stereo not shown) [Example 33] | 1 | 10 |  |  | 
Nc1nc2ccccc2c2c1ncn2CCOCCNC(=O)NC1CCCCC1 [Example 39] | 10 | 10 |  |  | 
CCCCc1nc2c(N)nc3ccccc3c2n1CCOCCNC(=O)NS(=O)(=O)c1ccccc1 [Example 19] | 0.1 | 10 |  |  | 
CCC(COCCC1CCN(C(=O)Nc2ccc(OC)cc2OC)CC1)n1cnc2c(N)nc3ccccc3c21 (stereo not shown) [Example 32] | 0.1 | 1 |  |  | 
CCCCc1nc2c(N)nc3ccccc3c2n1CCOCCNC(=O)Nc1cccc(SC)c1 [Example 17] |  | 10 |  | * | 
CCC(COCCC1CCN(C(=S)Nc2ccccc2)CC1)n1cnc2c(N)nc3ccccc3c21 (stereo not shown) [Example 36] | 0.1 |  |  |  | *
CCCCc1nc2c(N)nc3ccccc3c2n1CCOCCNC(=O)Nc1ccc(OC)cc1OC [Example 18] | 1 |  |  |  | *
CCCCc1nc2c(N)nc3ccccc3c2n1CCOCCNC(=O)N1CCOCC1 [Example 11] | 0.0001 | 0.1 |  |  | 
